Test results reported in ChEMBL document CHEMBL3351330, “Design, synthesis, and in vitro evaluation of an activity-based protein profiling (ABPP) probe targeting agmatine deiminases” (Bioorg Med Chem, 2014).
Activity calls are given as the source filed them. No cut-off for these calls is given here.

Key:
[1] = molecular target: T1, Putative agmatine deiminase (Streptococcus mutans serotype c (strain ATCC 700610 / UA159), UniProt Q8DW17); test: Inhibition of Streptococcus mutans agmatine deiminase expressed in Escherichia coli pre-incubated for 15 mins before agmatine substrate addition
T1 sequence (Q8DW17 whole entry): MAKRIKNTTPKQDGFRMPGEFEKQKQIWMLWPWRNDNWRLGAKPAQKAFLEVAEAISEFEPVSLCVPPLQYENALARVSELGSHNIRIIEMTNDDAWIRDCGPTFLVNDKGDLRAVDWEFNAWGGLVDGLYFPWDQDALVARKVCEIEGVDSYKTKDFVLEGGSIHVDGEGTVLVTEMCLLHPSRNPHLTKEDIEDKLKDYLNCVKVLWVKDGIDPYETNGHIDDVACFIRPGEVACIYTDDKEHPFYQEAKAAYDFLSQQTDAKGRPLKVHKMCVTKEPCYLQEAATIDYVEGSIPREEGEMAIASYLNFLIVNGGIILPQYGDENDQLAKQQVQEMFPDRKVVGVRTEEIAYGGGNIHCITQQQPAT

[2] = molecular target: T2, Putative agmatine deiminase (Streptococcus mutans serotype c (strain ATCC 700610 / UA159)) (UniProt Q8DW17); test: Binding affinity to Streptococcus mutans agmatine deiminase expressed in Escherichia coli assessed as enzyme photo labeling at 2 to 10 uM by coomassie blue staining based gel electrophoresis method
T2 sequence (whole entry): T1 sequence (Q8DW17 whole entry)

[3] = molecular target: T2, Putative agmatine deiminase (Streptococcus mutans serotype c (strain ATCC 700610 / UA159)); test: Binding affinity to Streptococcus mutans agmatine deiminase expressed in Escherichia coli assessed as enzyme level detected by compound at 10 uM after 45 mins by coomassie blue staining based gel electrophoresis method
[4] = molecular target: T2, Putative agmatine deiminase (Streptococcus mutans serotype c (strain ATCC 700610 / UA159)); test: Binding affinity to Streptococcus mutans agmatine deiminase in presence of Escherichia coli cell lysates assessed as enzyme photo labeling at 10 uM after 45 mins by coomassie blue staining based gel electrophoresis method
[5] = molecular target: T2, Putative agmatine deiminase (Streptococcus mutans serotype c (strain ATCC 700610 / UA159)); test: Binding affinity to Streptococcus mutans agmatine deiminase expressed in Escherichia coli assessed as enzyme photo labeling at 10 uM after 45 mins by coomassie blue staining based gel electrophoresis method
[6] = molecular target: T2, Putative agmatine deiminase (Streptococcus mutans serotype c (strain ATCC 700610 / UA159)); test: Binding affinity to Streptococcus mutans agmatine deiminase expressed in Escherichia coli assessed as enzyme photo labeling at 10 uM pre-treated with 10 uM ABCA for 45 mins by coomassie blue staining based gel electrophoresis method
[7] = molecular target: T2, Putative agmatine deiminase (Streptococcus mutans serotype c (strain ATCC 700610 / UA159)); test: Binding affinity to Streptococcus mutans agmatine deiminase expressed in Escherichia coli assessed as enzyme photo labeling at 2 to 10 uM after 45 mins by coomassie blue staining based SDS-PAGE method
[8] = molecular target: T2, Putative agmatine deiminase (Streptococcus mutans serotype c (strain ATCC 700610 / UA159)); test: Binding affinity to Streptococcus mutans agmatine deiminase in presence of Escherichia coli cell lysates assessed as enzyme level detected by compound at 10 uM after 45 mins by coomassie blue staining based gel electrophoresis method

Activity [2]	Activity [3] [pmol]	Activity [4]	Activity [5]	Activity [6]	Activity [7]	Activity [8] [pmol]	Structure (SMILES)	IC50 [1] [µM]
–	–	–	–	–	–	–	N=C(CCl)NCCCCN	0.26
Active	1	Active	Active	inactive	Active	0.5	N=C(CCl)NCCCCNCCCCCNC(=S)Nc1ccc(-c2c3ccc(=O)cc-3oc3cc(O)ccc23)c(C(=O)O)c1	10.6
